Results from publication PMC7714403 (JCI Insight, 2020).

Key:
RSK1 domain2 = target: T1, RSK1 domain2 (Homo sapiens, UniProt Q15418); test: KiNativ, OCI cells live cell; type: cell-based; conditions: 2 h, labeling site Lys2, peptide […]
T1 construct: RSK1 domain2

SNRK = SNRK (Homo sapiens, UniProt Q9NRH2); test: KiNativ, OCI cells live cell; type: cell-based; conditions: 2 h, labeling site Lys1, peptide […]
CASK = CASK (Homo sapiens, UniProt O14936); test: KiNativ, OCI cells live cell; type: cell-based; conditions: 2 h, labeling site Lys1, peptide […]
IRAK2 = IRAK2 (Homo sapiens, UniProt O43187); test: KiNativ, OCI cells live cell; type: cell-based; conditions: 2 h, labeling site Lys1, peptide […]
CK1g3 = CK1g3 (Homo sapiens, UniProt Q9Y6M4); test: KiNativ, OCI cells live cell; type: cell-based; conditions: labeling site Lys2, peptide DVKPENFLIGRPGNK
NDR2 = NDR2 (Homo sapiens, UniProt Q9Y2H1); test: KiNativ, OCI cells live cell; type: cell-based; conditions: 2 h
[1] = system: murine FLT3-ITD+/– IDH2-R140Q+/– AML cells; test: Primary transplantation model of murine AML cells; type: in vivo, NSG mice
Protocol: (§1) Engraftment and growth of leukemic cells were monitored by noninvasive bioluminescence imaging in cell line xenograft models, as previously done ([47]). Details on the cell engraftment and dosing in mouse models are provided in the Supplemental Methods.
(§2) Luc+ or MOLM13-Res -Luc+ cells, 0.5 million OCI-AML3 -Luc+ cells, and 10,000 Ba/F3-FLT3-ITD/F691L-GFP+ cells. Weekly tumor engraftment of cell line xenograft models were assessed after injection of D-luciferin (150mg/kg i.p.; Gold Biotechnology, Inc, St. Louis, MO) on Xenogen IVIS-200 imaging system (Perkin Elmer, Waltham, MA) or GFP monitoring by peripheral blood via BD LSR II flow cytometer (BD Biosciences, San Jose, CA). Signal intensity was analyzed using Living Image Software (PerkinElmer) or FlowJo v10.0.08 software (FlowJo, LLC, Ashland, OR). Mice were randomized to treatment groups based on signal intensity and leukemia burden. Drug treatments were started on days 3, 7, or 13 after cell injection in OCI-AML3, MOLM13, and MOLM13-Res xenografts, respectively. In murine AML transplantation model, 1 million FLT3-ITD+/-/IDH2-R140Q+/- splenocytes (in house colony) were intravenously injected in male NSG mice. […]
At indicated time points, cells were collected and washed with PBS. CD11b expression was measured using anti-CD11b -APC antibody (BioLegend, San Diego, CA). […] CD11b expression and apoptosis were measured by BD LSR II flow cytometer. […]

RSK2 domain2 = target: T2, RSK2 domain2 (Homo sapiens, UniProt P51812); test: KiNativ, OCI cells live cell; type: cell-based; conditions: 2 h, labeling site Lys2, peptide […]
T2 construct: RSK2 domain2

ABL, ARG = test: KiNativ, OCI cells live cell; type: cell-based, human
[2] = system: Ba/F3-FLT3-ITD/F691L-GFP+ cells; test: Ba/F3 FLT3-ITD/F691L-GFP+ xenograft model; type: in vivo, NSG mice; conditions: 60 mg/kg once daily, after 13 days of treatment
Protocol: as §1
as §2, with “mice. On day 7, mice were started on drug treatments. All mice were observed daily and humanely euthanized when showing signs of progressive disease including, hind limb paralysis, weight loss more than 20%, and lethargy.” for “mice.”

PI4KB = PI4KB (Homo sapiens, UniProt Q9UBF8); test: KiNativ, OCI cells live cell; type: cell-based; conditions: 2 h, labeling site ATP
CHK2 = CHK2 (Homo sapiens, UniProt O96017); test: KiNativ, OCI cells live cell; type: cell-based; conditions: 2 h
FLT3 ITD = FLT3 ITD (Homo sapiens, UniProt P36888, ITD); test: Kinase assay by Reaction Biology; type: biochemical; conditions: enzymatic kinase assay
MAST1, MAST2 = test: KiNativ, OCI cells live cell; type: cell-based, human; conditions: labeling site Lys2, peptide DLKPDNLLITSMGHIK

Chain of NDR2 (Q9Y2H1 whole entry): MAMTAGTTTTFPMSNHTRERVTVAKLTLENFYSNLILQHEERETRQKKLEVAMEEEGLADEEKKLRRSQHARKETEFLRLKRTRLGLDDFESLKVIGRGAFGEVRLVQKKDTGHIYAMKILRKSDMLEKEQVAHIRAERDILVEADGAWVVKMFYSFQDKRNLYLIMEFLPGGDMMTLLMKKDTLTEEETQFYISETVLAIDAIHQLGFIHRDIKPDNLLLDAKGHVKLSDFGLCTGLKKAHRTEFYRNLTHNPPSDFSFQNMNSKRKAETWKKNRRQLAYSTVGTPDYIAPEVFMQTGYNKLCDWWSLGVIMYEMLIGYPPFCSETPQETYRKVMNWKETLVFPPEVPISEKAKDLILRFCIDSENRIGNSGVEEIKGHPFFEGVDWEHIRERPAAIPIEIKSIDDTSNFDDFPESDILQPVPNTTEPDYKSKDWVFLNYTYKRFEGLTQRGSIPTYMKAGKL
Chain of PI4KB (Q9UBF8 whole entry): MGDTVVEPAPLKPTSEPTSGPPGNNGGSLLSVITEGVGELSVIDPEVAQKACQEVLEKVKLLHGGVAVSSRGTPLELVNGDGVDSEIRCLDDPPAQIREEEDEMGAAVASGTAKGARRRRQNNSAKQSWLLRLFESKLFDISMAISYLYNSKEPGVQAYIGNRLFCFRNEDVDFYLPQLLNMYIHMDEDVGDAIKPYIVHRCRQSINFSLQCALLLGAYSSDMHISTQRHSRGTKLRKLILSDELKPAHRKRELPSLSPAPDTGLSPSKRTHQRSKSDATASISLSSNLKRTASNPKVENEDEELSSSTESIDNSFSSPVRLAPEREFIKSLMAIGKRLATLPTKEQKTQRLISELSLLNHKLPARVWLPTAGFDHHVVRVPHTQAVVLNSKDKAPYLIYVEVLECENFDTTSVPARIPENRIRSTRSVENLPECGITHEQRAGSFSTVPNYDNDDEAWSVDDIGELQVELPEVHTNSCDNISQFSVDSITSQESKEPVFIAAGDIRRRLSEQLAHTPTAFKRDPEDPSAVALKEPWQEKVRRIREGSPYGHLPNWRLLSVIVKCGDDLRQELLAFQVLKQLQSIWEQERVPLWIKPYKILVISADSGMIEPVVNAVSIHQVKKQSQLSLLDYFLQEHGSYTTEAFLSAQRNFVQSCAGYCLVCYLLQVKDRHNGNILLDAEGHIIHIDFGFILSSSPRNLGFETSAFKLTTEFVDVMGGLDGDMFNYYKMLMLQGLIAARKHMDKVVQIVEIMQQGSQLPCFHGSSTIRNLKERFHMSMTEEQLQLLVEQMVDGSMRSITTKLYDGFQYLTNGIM
Chain of CHK2 (O96017 whole entry): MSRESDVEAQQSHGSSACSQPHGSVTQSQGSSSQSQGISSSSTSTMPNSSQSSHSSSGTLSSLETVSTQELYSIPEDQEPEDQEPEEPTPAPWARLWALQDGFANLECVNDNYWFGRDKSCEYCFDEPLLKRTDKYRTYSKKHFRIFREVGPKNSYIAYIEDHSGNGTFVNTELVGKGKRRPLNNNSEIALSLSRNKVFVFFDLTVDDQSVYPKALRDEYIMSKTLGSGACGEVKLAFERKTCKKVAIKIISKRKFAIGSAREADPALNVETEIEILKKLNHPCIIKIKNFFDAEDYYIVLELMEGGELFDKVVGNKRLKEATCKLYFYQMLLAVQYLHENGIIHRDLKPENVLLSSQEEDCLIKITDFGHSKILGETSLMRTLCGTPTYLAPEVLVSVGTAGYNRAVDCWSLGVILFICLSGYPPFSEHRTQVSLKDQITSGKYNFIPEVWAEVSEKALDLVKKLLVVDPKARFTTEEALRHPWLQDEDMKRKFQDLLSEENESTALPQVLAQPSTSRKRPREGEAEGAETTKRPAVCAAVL
Chain of SNRK (Q9NRH2 whole entry): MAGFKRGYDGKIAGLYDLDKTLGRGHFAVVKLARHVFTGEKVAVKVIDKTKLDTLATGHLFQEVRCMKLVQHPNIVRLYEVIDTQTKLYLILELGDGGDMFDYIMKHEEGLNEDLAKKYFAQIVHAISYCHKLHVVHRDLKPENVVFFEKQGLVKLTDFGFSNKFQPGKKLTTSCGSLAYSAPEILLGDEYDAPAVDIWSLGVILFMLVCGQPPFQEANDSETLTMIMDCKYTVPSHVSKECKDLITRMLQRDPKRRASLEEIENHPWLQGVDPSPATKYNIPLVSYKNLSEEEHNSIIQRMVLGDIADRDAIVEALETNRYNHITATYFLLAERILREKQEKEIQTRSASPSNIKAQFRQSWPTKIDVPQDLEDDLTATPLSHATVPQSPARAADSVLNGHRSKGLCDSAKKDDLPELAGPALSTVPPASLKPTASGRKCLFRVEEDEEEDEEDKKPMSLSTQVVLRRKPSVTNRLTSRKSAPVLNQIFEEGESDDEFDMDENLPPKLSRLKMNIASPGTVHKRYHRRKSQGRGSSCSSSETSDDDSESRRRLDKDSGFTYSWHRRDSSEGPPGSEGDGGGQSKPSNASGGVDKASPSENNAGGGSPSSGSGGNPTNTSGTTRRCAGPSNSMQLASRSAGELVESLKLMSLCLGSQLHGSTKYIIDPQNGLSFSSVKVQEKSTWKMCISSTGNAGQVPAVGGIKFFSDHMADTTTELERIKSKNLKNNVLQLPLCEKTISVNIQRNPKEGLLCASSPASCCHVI
Chain of CK1g3 (Q9Y6M4 whole entry): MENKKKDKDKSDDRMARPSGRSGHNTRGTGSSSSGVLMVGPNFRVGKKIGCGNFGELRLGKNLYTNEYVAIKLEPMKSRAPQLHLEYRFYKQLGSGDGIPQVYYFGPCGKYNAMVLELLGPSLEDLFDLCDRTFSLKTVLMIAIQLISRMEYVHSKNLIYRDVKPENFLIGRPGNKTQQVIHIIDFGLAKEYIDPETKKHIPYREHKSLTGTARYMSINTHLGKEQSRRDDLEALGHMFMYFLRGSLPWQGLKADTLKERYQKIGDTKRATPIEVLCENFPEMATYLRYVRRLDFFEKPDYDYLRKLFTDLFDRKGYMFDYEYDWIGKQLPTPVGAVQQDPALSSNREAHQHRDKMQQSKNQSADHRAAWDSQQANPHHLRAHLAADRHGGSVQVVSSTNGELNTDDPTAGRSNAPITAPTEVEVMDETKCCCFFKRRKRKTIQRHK
T2 sequence (P51812 whole entry, the tested form may be a part): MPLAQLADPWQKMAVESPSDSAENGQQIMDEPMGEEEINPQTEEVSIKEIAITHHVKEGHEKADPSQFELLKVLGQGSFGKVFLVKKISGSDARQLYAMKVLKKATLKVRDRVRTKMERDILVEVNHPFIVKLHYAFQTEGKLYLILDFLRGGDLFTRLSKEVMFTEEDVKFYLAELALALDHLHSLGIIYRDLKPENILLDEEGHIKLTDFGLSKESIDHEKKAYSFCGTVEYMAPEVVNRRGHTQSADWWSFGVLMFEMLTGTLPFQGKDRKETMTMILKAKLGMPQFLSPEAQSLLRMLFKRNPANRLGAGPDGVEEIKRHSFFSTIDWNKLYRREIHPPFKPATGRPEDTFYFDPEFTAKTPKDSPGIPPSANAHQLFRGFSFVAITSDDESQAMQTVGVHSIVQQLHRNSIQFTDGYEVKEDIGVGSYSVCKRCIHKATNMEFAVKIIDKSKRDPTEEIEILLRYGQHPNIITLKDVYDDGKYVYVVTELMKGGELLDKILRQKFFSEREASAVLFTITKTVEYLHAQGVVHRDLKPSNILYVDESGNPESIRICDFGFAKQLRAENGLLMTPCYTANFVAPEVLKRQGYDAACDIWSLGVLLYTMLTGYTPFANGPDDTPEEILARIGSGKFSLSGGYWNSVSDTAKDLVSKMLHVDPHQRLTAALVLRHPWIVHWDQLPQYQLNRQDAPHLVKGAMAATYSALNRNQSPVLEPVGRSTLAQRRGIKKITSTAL
T1 sequence (Q15418 whole entry, the tested form may be a part): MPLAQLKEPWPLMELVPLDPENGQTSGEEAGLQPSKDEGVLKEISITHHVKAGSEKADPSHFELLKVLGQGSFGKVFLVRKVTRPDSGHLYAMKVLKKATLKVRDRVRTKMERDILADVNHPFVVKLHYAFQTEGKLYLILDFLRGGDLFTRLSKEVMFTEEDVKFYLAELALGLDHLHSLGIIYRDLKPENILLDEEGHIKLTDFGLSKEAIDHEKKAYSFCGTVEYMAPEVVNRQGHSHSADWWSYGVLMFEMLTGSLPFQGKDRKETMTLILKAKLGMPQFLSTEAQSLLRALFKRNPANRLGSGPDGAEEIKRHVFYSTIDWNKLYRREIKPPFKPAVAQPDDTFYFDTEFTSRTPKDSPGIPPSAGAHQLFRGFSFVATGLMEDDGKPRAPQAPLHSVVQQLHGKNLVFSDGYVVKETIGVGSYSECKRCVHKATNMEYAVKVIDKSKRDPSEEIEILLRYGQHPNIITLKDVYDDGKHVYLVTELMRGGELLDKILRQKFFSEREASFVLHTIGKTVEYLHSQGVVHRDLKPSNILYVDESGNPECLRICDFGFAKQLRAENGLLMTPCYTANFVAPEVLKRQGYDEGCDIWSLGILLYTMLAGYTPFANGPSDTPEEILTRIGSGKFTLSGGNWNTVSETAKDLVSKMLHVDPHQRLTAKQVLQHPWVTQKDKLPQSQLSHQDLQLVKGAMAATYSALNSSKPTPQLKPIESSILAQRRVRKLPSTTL
Chain of FLT3 ITD (P36888 564-993, change not shown): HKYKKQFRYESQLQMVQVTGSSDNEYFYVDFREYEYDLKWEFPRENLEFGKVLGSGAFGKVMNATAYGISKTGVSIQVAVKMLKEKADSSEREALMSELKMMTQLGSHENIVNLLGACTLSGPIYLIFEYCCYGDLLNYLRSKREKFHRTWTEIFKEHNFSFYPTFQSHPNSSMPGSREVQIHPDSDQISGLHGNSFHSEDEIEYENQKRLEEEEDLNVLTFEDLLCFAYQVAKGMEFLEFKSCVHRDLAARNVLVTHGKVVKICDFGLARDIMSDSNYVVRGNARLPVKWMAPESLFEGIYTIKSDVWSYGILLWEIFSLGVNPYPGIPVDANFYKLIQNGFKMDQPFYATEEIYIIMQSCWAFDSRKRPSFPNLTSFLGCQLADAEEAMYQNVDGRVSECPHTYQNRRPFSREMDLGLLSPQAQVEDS

## CN1CCN(Cc2ccc(Nc3ncc(Cl)c(Nc4ccccc4S(=O)(=O)N(C)C)n3)cc2)CC1 [TP-0903]
RSK1 domain2
  inhibition at 0.1 µM: 8.6%
SNRK
  inhibition at 0.1 µM: 1%
CASK
  inhibition at 0.1 µM: 31.2%
IRAK2
  inhibition at 0.1 µM: -9.1%
CK1g3
  Inhibition: -14.0%
NDR2; labeling site Lys1, peptide DTGHIYAMKILR
  inhibition at 0.1 µM: 21.5%
NDR2; labeling site Lys2, peptide DIKPDNLLLDAK
  inhibition at 0.1 µM: -7%
[1]; 40 mg/kg once daily
  Spleen weight at study endpoint (mean ± SD): 50 ± 13 mg
[1]; 40 mg/kg once daily up to 6 weeks
  Survival prolonged compared with vehicle: 9 days
RSK2 domain2
  inhibition at 0.1 µM: -18.2%
ABL, ARG; labeling site Activation Loop, peptide LMTGDTYTAHAGAKFPIK
  Inhibition: 37.3%
ABL, ARG; labeling site Lys1, peptide YSLTVAVKTLKEDTMEVEEFLK
  Inhibition: 40.1%
[2]
  Peripheral blood GFP signal compared with gilteritinib: significantly lower
PI4KB; peptide LLSVIVKCGDDLRQELLAFQVLK
  inhibition at 0.1 µM: -13.1%
PI4KB; peptide VPHTQAVVLNSKDK
  inhibition at 0.1 µM: -23.3%
CHK2; labeling site Lys1, peptide VAIKIISK
  inhibition at 0.1 µM: 37.7%
CHK2; labeling site Lys2, peptide DLKPENVLLSSQEEDCLIK
  inhibition at 0.1 µM: 37.1%
FLT3 ITD
  IC50: 3.9 nM
MAST1, MAST2
  Inhibition: -5.0%
